Data on 21 compounds can be found in patent US20070149481A1, “N,n-bridged, nitrogen-substituted carbacyclic indolocarbazoles as protein kinase inhibitors” (priority 2002, published 2007).

Holding throughout (type): biochemical
Common to all, as to details: 10 μM compound

Experiment [1] has as its target T1, PKA (catalytic subunit, bovine heart) (Bos taurus, UniProt P00517).
T1 construct: PKA (catalytic subunit, bovine heart, Calbiochem 539486); purchased Calbiochem 539486; host or cells: bovine heart (tissue-derived)
Nature of the experiment: Protein Kinase A inhibition assay (PKA). As to the method: (§1) The ERK2 kinase activity assay utilizes a radioactivity-based format in a 96-well PCR plate with radioactive readout. The ERK2 activity was assayed in a 25 μL assay mixture containing 25 mM HEPES (pH 7.0), 250 μM ATP, 1 mM MgCl2, 1 mM DTT, 2% DMSO, 150 ng/mL Myelin Basic Protein (MBP, Sigma M-1891), and 13.6 ng/mL His tagged ERK2 (specific activity=38.1 nmol/min*mg). Compounds were screened for inhibition of the ERK2 kinase activity at a concentration of 10 μM. The kinase reaction was allowed to proceed at 37° C. for 30 minutes, then reaction was stopped by the addition of 5 μl of 0.5M EDTA (pH 8). 15 μL of each solution were then spotted onto the corresponding square of a filtermat (8×12 glassfibre mat 90×120 mm, PE-Wallac 1450-421). The filtermat was allowed to dry and washed once with 10% TCA, 2% PPA, 500 mM NaCl each for 30 minutes at rt. Two further washings in 10% TCA and 2% PPA for 30 minutes were performed, then a final 30 minute wash in 99% EtOH at rt was done and the filtermat was air dried. The dry filtermat was then placed in a sample bag with a Meltilex sheet (Melt-on scintillator sheets 73×109 mm, PE-Wallac 1450-441 for filtermat A) over the filtermat. The bag was trimmed to fit into the microplate heatsealer (PE-Wallac 1495-021). The heatsealer is used to melt the Meltilex on the filtermat. The bag containing the filtermat and the melted Meltilex was then placed into a filter cassette and counted using the Microbeta Jet Scintillation and Luminescence Counter PE-Wallac 1450.
The PKA kinase activity assay utilizes a radioactivity-based format in a 96-well PCR plate with radioactive readout. The PKA activity was assayed in a 25 μL assay mixture containing 25 mM HEPES (pH 7.0), 250 μM ATP, 10 mM MgCl2, 1 mM DTT, 1 mM EDTA (pH 8). 2% DMSO. 250 ng/mL Histone H2B (Roche 223 514), and 2 ng/mL PKA (catalytic subunit, bovine heart, Calbiochem 539486, specific activity=1170 pmol/min*μg). Compounds were screened for inhibition of the PKA kinase activity at a concentration of 10 μM. The kinase reaction was allowed to proceed at 37° C. for 30 minutes, then the reaction was stopped by addition of 5 μL of 0.5M EDTA (pH 8). The remainder of the protocol is identical to the one reported for ERK2.

A further experiment has as its target His tagged ERK2 (Homo sapiens, UniProt P28482). Nature of the experiment: Extracellular signal Regulated Kinase 2 inhibition assay (ERK2), radioactive filtermat format. As to the method: as §1
The test system of a further experiment is PKC (rat brain). Nature of the experiment: Protein Kinase C inhibition assay (PKC). As to the method: as §1
The PKC kinase activity assay utilizes a radioactivity-based format in a 96-well PCR plate with radioactive readout. The PKC activity was assayed in a 25 μL assay mixture containing 25 mM HEPES (pH 7.0), 250 μM ATP, 10 mM MgCl2, 1 mM DTT, 1 mM EDTA (pH 8), 2 mM CaCl2, 2% DMSO, 250 ng/mL Histone H1 (Roche 1 004 875), and 165 ng/mL PKC (rat brain, Calbiochem 539494, specific activity=1600 nmol/min*mg). Compounds were screened for inhibition of the PKC kinase activity at a concentration of 10 μM. The kinase reaction was allowed to proceed at 37° C. for 30 minutes, then the reaction was stopped by addition of 5 μL of 0.5M EDTA (pH 8). The remainder of the protocol is identical to the one reported for ERK2.

For the next experiment, the target named is T2, GSK3β (Homo sapiens, UniProt P49841).
T2 construct: purchased Upstate Discovery
T2 sequence (P49841 whole entry, species assumed): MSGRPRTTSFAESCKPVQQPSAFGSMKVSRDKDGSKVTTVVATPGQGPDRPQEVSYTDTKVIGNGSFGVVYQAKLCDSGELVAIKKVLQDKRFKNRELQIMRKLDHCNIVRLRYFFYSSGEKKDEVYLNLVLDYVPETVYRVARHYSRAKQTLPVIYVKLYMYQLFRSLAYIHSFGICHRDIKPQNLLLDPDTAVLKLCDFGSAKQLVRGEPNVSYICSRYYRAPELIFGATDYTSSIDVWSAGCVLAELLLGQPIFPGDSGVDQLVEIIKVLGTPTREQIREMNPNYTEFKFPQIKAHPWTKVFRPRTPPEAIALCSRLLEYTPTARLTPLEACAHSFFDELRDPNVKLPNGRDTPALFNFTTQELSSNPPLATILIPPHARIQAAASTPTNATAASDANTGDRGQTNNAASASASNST
Nature of the experiment: Glycogen Synthase Kinase 3β inhibition assay (GSK3β). As to the method:
The GSK3β kinase activity assay utilizes a radioactivity-based format in a 96-well PCR plate with radioactive readout. The GSK3 β activity was assayed in a 25 μL assay mixture containing 8 mM HEPES (pH 7.0), 250 μM ATP, 0.2 mM EDTA (pH 8), 2% DMSO, 250 ng/mL Myelin Basic Protein (MBP, Sigma M-1891), and 12 ng/mL GSK3β (Upstate Discovery, specific activity=607 nmol/min*GS2 peptide, concentration of 6.05 mg/mL). Compounds were screened for inhibition of the GSK3β kinase activity at a concentration of 10 μM. The kinase reaction was allowed to proceed at 37° C. for 30 minutes, then the reaction was stopped by addition of 5 μL of 0.5M EDTA (pH 8).

In general, inhibition refers to the change of the read-out against control, counted positive when it falls.

Chain of His tagged ERK2 (P28482 whole entry): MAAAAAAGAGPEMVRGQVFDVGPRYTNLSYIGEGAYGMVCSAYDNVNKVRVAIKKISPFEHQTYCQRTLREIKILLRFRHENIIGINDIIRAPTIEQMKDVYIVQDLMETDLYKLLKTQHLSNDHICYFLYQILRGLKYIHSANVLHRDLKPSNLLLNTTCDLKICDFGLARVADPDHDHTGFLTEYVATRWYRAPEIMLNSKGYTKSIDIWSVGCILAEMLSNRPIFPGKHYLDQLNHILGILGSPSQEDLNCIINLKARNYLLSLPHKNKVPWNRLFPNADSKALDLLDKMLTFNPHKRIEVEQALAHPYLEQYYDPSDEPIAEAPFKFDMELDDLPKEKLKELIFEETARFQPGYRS

As to `COc1ccc(CN2C(=O)c3c(c4c5ccccc5n5c4c4c3c3ccccc3n4C3CC5[C@@H](N)C3)C2=O)cc1` (mixture of isomers) [Compound 1], the inhibition at 10 µM is 17.6% in experiment [1], 30.9% at His tagged ERK2 and less than 10% against GSK3β. Besides, the “% Inhibition PKC” value in the experiment with PKC (rat brain) was 49.73%.

Consider `CN[C@H]1CC2CC1n1c3ccccc3c3c4c(c5c6ccccc6n2c5c31)C(=O)NC4=O` (mixture of isomers) [Compound 2], for which the inhibition at 10 µM in experiment [1] was determined as 68.4%; at His tagged ERK2 it was 65.3%; against GSK3β, 78.2%. The “% Inhibition PKC” value with PKC (rat brain) worked out at 90.78%.

As for `O=C1NC(=O)c2c1c1c3ccccc3n3c1c1c2c2ccccc2n1C1CC3C[C@@H]1N1CCOCC1` (mixture of isomers) [Compound 3], the results for the inhibition at 10 µM (in experiment [1]; on His tagged ERK2; against GSK3β) were 26.1%, 39.9% and 19.3%, respectively. For the same compound, the “% Inhibition PKC” value in the experiment on PKC (rat brain) came to 75.80%.

As for `N#C[C@]1(N)CC2CC1n1c3ccccc3c3c4c(c5c6ccccc6n2c5c31)C(=O)NC4=O` (mixture of isomers) [Compound 4], the inhibition at 10 µM in experiment [1] worked out at 89.6%; at His tagged ERK2, 94.1%; on GSK3β, 98.5%. In addition, the “% Inhibition PKC” value with PKC (rat brain) amounted to 78.10%.

On to `CNC(=O)[C@]1(N)CC2CC1n1c3ccccc3c3c4c(c5c6ccccc6n2c5c31)C(=O)NC4=O` (mixture of isomers) [Compound 10], for which the inhibition at 10 µM stood at 95.3% in experiment [1], 93.5% at His tagged ERK2 and 99.2% at GSK3β. Further, in the experiment with PKC (rat brain), the “% Inhibition PKC” value is listed as 90.75%.

As for `N[C@@]1(C(=O)NCCO)CC2CC1n1c3ccccc3c3c4c(c5c6ccccc6n2c5c31)C(=O)NC4=O` (mixture of isomers) [Compound 11], the values for the inhibition at 10 µM (in experiment [1]; on His tagged ERK2; on GSK3β) were 90.5%, 93.6% and 99.2%, respectively. Further, the “% Inhibition PKC” value in the experiment on PKC (rat brain) is 95.94%.

On to `NC(=O)[C@]1(N)C[C@@H]2CC1n1c3ccc(O)cc3c3c4c(c5c6cc(O)ccc6n2c5c31)C(=O)NC4=O` (mixture of isomers) [Compound 12], for which the inhibition at 10 µM in experiment [1] stood at 99.9%; on His tagged ERK2, 98.1%; against GSK3β, 100%. For the same compound, the “% Inhibition PKC” value with PKC (rat brain) was 96.63%.

Turning to `COc1ccc(CN2C(=O)c3c(c4c5ccccc5n5c4c4c3c3ccccc3n4C3CC5[C@]4(C3)NC(=O)NC4=O)C2=O)cc1` (mixture of isomers) [Compound 13], the figures for the inhibition at 10 µM (in experiment [1]; on His tagged ERK2; against GSK3β) were 13.2%, 24.7% and less than 10%, respectively. The “% Inhibition PKC” value in the experiment on PKC (rat brain) stood at 13.67%.

Regarding `COc1ccc(CN2C(=O)c3c(c4c5ccccc5n5c4c4c3c3ccccc3n4C3CC5[C@]4(C3)NC(=O)N(C)C4=O)C2=O)cc1` (mixture of isomers) [Compound 14], the inhibition at 10 µM in experiment [1] is 16.6%; at His tagged ERK2, 46.6%; against GSK3β it was less than 10%. For the same compound, the “% Inhibition PKC” value with PKC (rat brain) is reported as 34.01%.

`[N-]=[N+]=NC1C2CC([C@H]1O)n1c3ccccc3c3c4c(c5c6ccccc6n2c5c31)C(=O)NC4=O` (mixture of isomers) [Compound 15]: the inhibition at 10 µM in experiment [1] was found to be 79.8%; at His tagged ERK2, 94.6%; at GSK3β, 96.9%. Also, in the experiment on PKC (rat brain), the “% Inhibition PKC” value came out at 88.68%.

Regarding `N[C@@H]1C2CC([C@H]1O)n1c3ccccc3c3c4c(c5c6ccccc6n2c5c31)C(=O)NC4=O` (mixture of isomers) [Compound 16], the inhibition at 10 µM in experiment [1] was 84.8%; on His tagged ERK2, 98.2%; on GSK3β, 98.5%. In addition, the “% Inhibition PKC” value in the experiment on PKC (rat brain) was found to be 93.34%.

For the compound `COC(=O)c1cn([C@@H]2C3CC([C@H]2O)n2c4ccccc4c4c5c(c6c7ccccc7n3c6c42)C(=O)NC5=O)nn1` (mixture of isomers) [Compound 17], the inhibition at 10 µM was less than 10% in experiment [1], less than 10% at His tagged ERK2 and 12.1% at GSK3β. Besides, in the experiment with PKC (rat brain), the “% Inhibition PKC” value turned out to be 96.75%.

`O=C(O)c1cn([C@@H]2C3CC([C@H]2O)n2c4ccccc4c4c5c(c6c7ccccc7n3c6c42)C(=O)NC5=O)nn1` (mixture of isomers) [Compound 18]: the inhibition at 10 µM in experiment [1] is 11.5%; on His tagged ERK2, less than 10%; against GSK3β, 75.9%. Moreover, the “% Inhibition PKC” value in the experiment on PKC (rat brain) is 21.55%.

Turning to `CCOC(=O)[C@]1(N)CC2CC1n1c3ccccc3c3c4c(c5c6ccccc6n2c5c31)C(=O)NC4=O` (stereo partly drawn) [Compound 6], the inhibition at 10 µM was found to be 59.4% in experiment [1], 61.3% at His tagged ERK2 and 94.2% against GSK3β. Also, in the experiment with PKC (rat brain), the “% Inhibition PKC” value was 83.97%.

For `N[C@@]1(C(=O)O)CC2CC1n1c3ccccc3c3c4c(c5c6ccccc6n2c5c31)C(=O)NC4=O` (stereo partly drawn) [Compound 7], the inhibition at 10 µM in experiment [1] came out at 62.5%; at His tagged ERK2 it was 94.7%; at GSK3β, 99%. The “% Inhibition PKC” value in the experiment with PKC (rat brain) was 85.71%.

Take `COC(=O)[C@]1(N)CC2CC1n1c3ccccc3c3c4c(c5c6ccccc6n2c5c31)C(=O)NC4=O` (stereo partly drawn) [Compound 8]: the inhibition at 10 µM in experiment [1] was determined as 70.8%; at His tagged ERK2 it was 50.2%; on GSK3β, 96.9%. Further, in the experiment with PKC (rat brain), the “% Inhibition PKC” value came to 59.42%.

Regarding `O=C1NC(=O)c2c1c1c3ccccc3n3c1c1c2c2ccccc2n1C1CC3CC1NCc1ccccc1` (stereo not drawn) [Compound 23], the “% Inhibition PKA” value in experiment [1] came to 27.53%. At His tagged ERK2, the “% Inhibition ERK2” value is recorded as 53.66%. Also, the “% Inhibition PKC” value with PKC (rat brain) was 70.41%. At GSK3β, the “% Inhibition GSK3β” value worked out at 72.56%.

Take `COc1ccc(CN2C(=O)c3c(c4c5ccccc5n5c4c4c3c3ccccc3n4C3CC(N4CCCCC4)C5C3)C2=O)cc1` (stereo not drawn) [Compound 24]: the “% Inhibition PKA” value in experiment [1] worked out at 10.67%. In addition, the “% Inhibition ERK2” value on His tagged ERK2 is 28.09%. Besides, the “% Inhibition PKC” value in the experiment with PKC (rat brain) came to 28.18%. Besides, the “% Inhibition GSK3β” value on GSK3β is “NA (NA = <10% inhibition)”.

`COc1ccc(CN2C(=O)c3c(c4c5ccccc5n5c4c4c3c3ccccc3n4C3CC(NCCO)C5C3)C2=O)cc1` (stereo not drawn) [Compound 25]: the “% Inhibition PKA” value in experiment [1] is on record as “NA (NA = <10% inhibition)”. Besides, on His tagged ERK2, the “% Inhibition ERK2” value turned out to be 33.51%. Further, the “% Inhibition PKC” value in the experiment with PKC (rat brain) came out at 15.94%. Also, the “% Inhibition GSK3β” value on GSK3β is “NA (NA = <10% inhibition)”.

On to `COc1ccc(CN2C(=O)c3c(c4c5ccccc5n5c4c4c3c3ccccc3n4C3CC5[C@@H](N4CCOCC4)C3)C2=O)cc1` (stereo partly drawn) [Compound 26], for which the results for the inhibition at 10 µM (in experiment [1]; on His tagged ERK2; on GSK3β) were less than 10%, 67.6% and less than 10%, respectively. For the same compound, in the experiment with PKC (rat brain), the “% Inhibition PKC” value came to 10.18%.

On to `CNC1(C#N)CC2CC1n1c3ccccc3c3c4c(c5c6ccccc6n2c5c31)C(=O)N(Cc1ccc(OC)cc1)C4=O` (stereo not drawn) [Compound 27], for which the “% Inhibition PKA” value in experiment [1] was 30.19%. Moreover, the “% Inhibition ERK2” value at His tagged ERK2 stood at 63.52%. For the same compound, in the experiment on PKC (rat brain), the “% Inhibition PKC” value amounted to 32.18%. Moreover, the “% Inhibition GSK3β” value on GSK3β was found to be 18.28%.
